Patent publication US20130245081A1, “Compositions and Methods for Treating Amyotrophic Lateral Sclerosis” (priority 2009, published 2013)

Legend:
dogs = settings: single oral dose; cited from earlier work
rodents [1] = settings: single oral dose; cited from earlier work
rodents [2] = assay: Single dose toxicity after oral administration, rodents; settings: in vivo
human subjects = settings: in vivo; cited from earlier work
monkeys = settings: single oral dose; cited from earlier work
patients with ALS = settings: Part 1

Row | Structure (SMILES) | dose at which vomiting occurred (dogs) [mg/kg] | doses at which death occurred (rodents [1]) [mg/kg] | human dose equivalent to the lethal rodent dose (rodents [2]) [mg/kg] | human dose equivalent to the lethal rodent dose for a 70 kg individual (rodents [2]) [mg] | dose shown to cause somnolence in humans (human subjects) [mg] | initial single dose not tolerated (human subjects) | maximally tolerated dose for humans (Mirapex product insert) (human subjects) [mg/day] | dose at which major excitation was displayed (monkeys) [mg/kg] | effect of riluzole on change from baseline in ALSFRS-R scores (patients with ALS; across all treatment groups) | mean change from baseline to study endpoint in ALSFRS-R score (patients with ALS; placebo with riluzole)
1 | CCCN[C@H]1CCc2nc(N)sc2C1 [pramipexole, (6S)-2-amino-4,5,6,7-tetrahydro-6-(propylamino)benzothiazole] | ≥ 0.0007 | 70 to 105 | 7 to 12 | 500 to 850 | 1.5 | greater than 0.20 mg | 4.5 | 3.5 | – | –
2 | Nc1nc2ccc(OC(F)(F)F)cc2s1 [riluzole, reference compound] | – | – | – | – | – | – | – | – | no effect | −3.6
